As a reminder, the MIC is the least concentration at which growth counts as inhibited.

Values after ≈ are worked out from the molar mass of the structure shown. Active and inactive are the calls of the source. No cut-off for these calls is given here. Some results are limits rather than exact numbers.

In experiment [1] the test system is Staphylococcus aureus. In words: Inhibition of biofilm in Staphylococcus aureus ATCC 29213 at 0.5 times MIC measured after 12 hrs by crystal violet staining based analysis relative to control. It is filed as functional.
In experiment [2] the test system is Staphylococcus aureus. In words: Antibacterial activity against methicillin-resistant Staphylococcus aureus NRS 129 assessed as reduction in bacterial growth measured after 18 to 24 hrs by broth microdilution method. It is filed as functional. The following applies: time 18-24 hrs. (Broth dilution looks for growth in wells or tubes with falling amounts of substance.)

In experiment [3] the test system is Staphylococcus aureus. In words: Antibacterial activity against methicillin-resistant Staphylococcus aureus NRS 119 assessed as reduction in bacterial growth measured after 18 to 24 hrs by broth microdilution method. In kind it is functional. The following applies: time 18-24 hrs.
The test system of experiment [4] is Staphylococcus aureus. The experiment can be described thus: Antibacterial activity against methicillin-resistant Staphylococcus aureus NRS 193 assessed as reduction in bacterial growth measured after 18 to 24 hrs by broth microdilution method. In kind it is functional. As to conditions: time 18-24 hrs.
In the next experiment the test system is Acinetobacter baumannii. In words: Antibacterial activity against Acinetobacter baumannii BAA 1605 assessed as reduction in bacterial growth measured after 18 to 24 hrs by broth microdilution method. As to conditions: time 18-24 hrs. In kind it is functional.
The next experiment relates to Klebsiella pneumoniae. The experiment can be described thus: Antibacterial activity against Klebsiella pneumoniae BAA 1705 assessed as reduction in bacterial growth measured after 18 to 24 hrs by broth microdilution method. The following applies: time 18-24 hrs. In kind it is functional.
Experiment [5] relates to Staphylococcus aureus. In words: Antibacterial activity against methicillin-resistant Staphylococcus aureus NRS 186 assessed as reduction in bacterial growth measured after 18 to 24 hrs by broth microdilution method. It is filed as functional. The following applies: time 18-24 hrs.
Experiment [6] relates to Staphylococcus aureus. The experiment can be described thus: Inhibition of biofilm in Staphylococcus aureus ATCC 29213 at 2 ug/ml measured after 12 hrs by crystal violet staining based analysis. In kind it is functional, organism-based. As to conditions: dose 2.0 µg/ml.
Experiment [7] relates to Staphylococcus aureus. The experiment can be described thus: Inhibition of biofilm in Staphylococcus aureus ATCC 29213 at 2 times MIC measured after 12 hrs by crystal violet staining based analysis relative to control. In kind it is functional.
Experiment [8] concerns Staphylococcus aureus. In words: Antibacterial activity against vacomycin-resistant Staphylococcus aureus VRS 4 assessed as reduction in bacterial growth measured after 18 to 24 hrs by broth microdilution method. The following applies: time 18-24 hrs. In kind it is functional.
Another experiment has as its system Escherichia coli. The experiment can be described thus: Antibacterial activity against Escherichia coli ATCC 25922 assessed as reduction in bacterial growth measured after 18 to 24 hrs by broth microdilution method. In kind it is functional. As to conditions: time 18-24 hrs.
Experiment [9] relates to Staphylococcus aureus. In words: Antibacterial activity against methicillin-resistant Staphylococcus aureus NRS 192 assessed as reduction in bacterial growth measured after 18 to 24 hrs by broth microdilution method. It is filed as functional. The following applies: time 18-24 hrs.
Experiment [10] concerns Staphylococcus aureus. The experiment can be described thus: Antibacterial activity against vacomycin-resistant Staphylococcus aureus VRS 12 assessed as reduction in bacterial growth measured after 18 to 24 hrs by broth microdilution method. It is filed as functional. As to conditions: time 18-24 hrs.
Experiment [11] has as its system Staphylococcus aureus. In words: Inhibition of biofilm in Staphylococcus aureus ATCC 29213 at 1 times MIC measured after 12 hrs by crystal violet staining based analysis relative to control. In kind it is functional.
For the next experiment, the system named is Bacillus subtilis. In words: Antibacterial activity against Bacillus subtilis IITKSM1 assessed as reduction in bacterial growth measured after 18 to 24 hrs by broth microdilution method. In kind it is functional. The following applies: time 18-24 hrs.
Another experiment deals with Pseudomonas aeruginosa. In words: Antibacterial activity against Pseudomonas aeruginosa ATCC 27853 assessed as reduction in bacterial growth measured after 18 to 24 hrs by broth microdilution method. In kind it is functional. The following applies: time 18-24 hrs.
For experiment [12], the system named is Staphylococcus aureus. In words: Antibacterial activity against methicillin-sensitive Staphylococcus aureus ATCC 29213 assessed as reduction in bacterial growth measured after 18 to 24 hrs by broth microdilution method. It is filed as functional. As to conditions: time 18-24 hrs.
Experiment [13] deals with Staphylococcus aureus. The experiment can be described thus: Antibacterial activity against vacomycin-resistant Staphylococcus aureus VRS 1 assessed as reduction in bacterial growth measured after 18 to 24 hrs by broth microdilution method. In kind it is functional. As to conditions: time 18-24 hrs.
Experiment [14] concerns Staphylococcus aureus. The experiment can be described thus: Antibacterial activity against methicillin-resistant Staphylococcus aureus NRS 198 assessed as reduction in bacterial growth measured after 18 to 24 hrs by broth microdilution method. In kind it is functional. The following applies: time 18-24 hrs.
The subject of experiment [15] is Staphylococcus aureus. The experiment can be described thus: Antibacterial activity against Staphylococcus aureus ATCC 29213 assessed as reduction in bacterial growth measured after 18 to 24 hrs by broth microdilution method. It is filed as functional. As to conditions: time 18-24 hrs.
In another experiment the test system is Enterococcus faecalis. The experiment can be described thus: Antibacterial activity against Enterococcus faecalis ATCC 35550 assessed as reduction in bacterial growth measured after 18 to 24 hrs by broth microdilution method. It is filed as functional. The following applies: time 18-24 hrs.
Experiment [16] has as its system Staphylococcus aureus. In words: Antibacterial activity against methicillin-resistant Staphylococcus aureus NRS 191 assessed as reduction in bacterial growth measured after 18 to 24 hrs by broth microdilution method. In kind it is functional. The following applies: time 18-24 hrs.
Experiment [17] relates to Staphylococcus aureus. The experiment can be described thus: Antibacterial activity against methicillin-resistant Staphylococcus aureus NRS 194 assessed as reduction in bacterial growth measured after 18 to 24 hrs by broth microdilution method. In kind it is functional. The following applies: time 18-24 hrs.
Experiment [18] deals with Staphylococcus aureus. In words: Antibacterial activity against methicillin-resistant Staphylococcus aureus NRS 100 assessed as reduction in bacterial growth measured after 18 to 24 hrs by broth microdilution method. It is filed as functional. As to conditions: time 18-24 hrs.
Experiment [19] relates to Staphylococcus aureus. The experiment can be described thus: Bactericidal activity against Staphylococcus aureus ATCC 29213 at 4 to 8 time MIC measured after 8 hrs by time-kill assay. It is filed as functional, organism-based.
Experiment [20] relates to Staphylococcus aureus. The experiment can be described thus: Induction of morphological changes in Staphylococcus aureus ATCC 29213 assessed as cell shrinkage at 10 times MIC measured after 4 hrs by atomic force microscopy based analysis (reference value: 60.170 nanometer). It is filed as functional.

In the case of `CC(C)(C)c1cc(C(c2ccc(F)cc2)c2ccc(F)cc2)c(NC(=O)c2cccc(C(=O)O)c2)c(C(c2ccc(F)cc2)c2ccc(F)cc2)c1`, the results for the “inhibition (INH)” value in the experiment on Staphylococcus aureus [1], with Staphylococcus aureus [7] and with Staphylococcus aureus [11] were over 50%, 95% and 95%, respectively. In addition, the MIC in the experiment with Staphylococcus aureus [2] is 2 µg/mL (≈ 2.85 µM); in the experiment on Staphylococcus aureus [3], 2 µg/mL (≈ 2.85 µM); in the experiment on Staphylococcus aureus [4], 2 µg/mL (≈ 2.85 µM); in the experiment on Acinetobacter baumannii it was over 64 µg/mL; in the experiment with Klebsiella pneumoniae, over 64 µg/mL; in the experiment with Staphylococcus aureus [5], 2 µg/mL (≈ 2.85 µM). Further, the MIC was 2 µg/mL (≈ 2.85 µM) with Staphylococcus aureus [8]; over 64 µg/mL in the experiment on Escherichia coli; 2 µg/mL (≈ 2.85 µM) in the experiment on Staphylococcus aureus [9]; 2 µg/mL (≈ 2.85 µM) with Staphylococcus aureus [10]; 1 µg/mL (≈ 1.42 µM) in the experiment with Bacillus subtilis; over 64 µg/mL with Pseudomonas aeruginosa. Besides, the MIC with Staphylococcus aureus [12] amounted to 2 µg/mL (≈ 2.85 µM); with Staphylococcus aureus [13] it was 2 µg/mL (≈ 2.85 µM); with Staphylococcus aureus [14] it was 2 µg/mL (≈ 2.85 µM); in the experiment with Staphylococcus aureus [15], 2 µg/mL (≈ 2.85 µM); with Enterococcus faecalis, 1 µg/mL (≈ 1.42 µM); in the experiment on Staphylococcus aureus [16] it was 2 µg/mL (≈ 2.85 µM). Besides, the MIC with Staphylococcus aureus [17] and in the experiment with Staphylococcus aureus [18] was 2 µg/mL (≈ 2.85 µM) each time. Also, the inhibition result with Staphylococcus aureus [6] was “Active”.
For `CN[C@H](CC(C)C)C(=O)N[C@H]1C(=O)N[C@@H](CC(N)=O)C(=O)N[C@H]2C(=O)N[C@H]3C(=O)N[C@H](C(=O)N[C@H](C(=O)O)c4cc(O)cc(O)c4-c4cc3ccc4O)[C@H](O)c3ccc(c(Cl)c3)Oc3cc2cc(c3O[C@@H]2O[C@H](CO)[C@@H](O)[C@H](O)[C@H]2O[C@H]2C[C@](C)(N)[C@H](O)[C@H](C)O2)Oc2ccc(cc2Cl)[C@H]1O` [VANCOMYCIN], the MIC in the experiment on Staphylococcus aureus [8], in the experiment on Staphylococcus aureus [10] and in the experiment on Staphylococcus aureus [13] was over 64 µg/mL each time. The outcome in the experiment with Staphylococcus aureus [19] was Active.
For the compound `CC1(C)S[C@@H]2[C@H](NC(=O)[C@H](N)c3ccccc3)C(=O)N2[C@H]1C(=O)O` [AMPICILLIN], the Activity in the experiment on Staphylococcus aureus [20] turned out to be 36.075 nm.
